Assay results from patent US20040009208A1, “Safe and effective nutritional supplement formulations and associated regimens adapted to prevent and/or treat targeted diseases or medical or health conditions, and related methods” (Vital Living, Inc., priority 2002, published 2004).

Columns and labels:
homocysteine = test: Projected benefit on homocysteine level (Table 5); format: in vivo, patients; parameters: key: “NC” indicating no change; conditions: expected benefit, class symbol
Description: (§1) The particular CVD-specific nutraceuticals and regimens herein disclosed were also designed to achieve a measurable benefit on lipid levels equivalent to those provided by many popular pharmaceutical drug therapies. The expected range of benefits (“NC” indicating no change) is projected as indicated below in Table 5. Given that all of the nutritional supplement ingredients used in the CVD-specific nutraceutical herein disclosed operate according to independent mechanisms, the cumulative effective on LDL cholesterol, HDL cholesterol, triglycerides and homocysteine levels would be additive and would not counteract each other or interfere with common CVD prescription pharmaceutical treatments.

triglycerides [1] = conditions: low doses (500-1000 mg/day); cited from earlier work
LDL cholesterol [2] = test: Projected benefit on LDL cholesterol level (Table 5); format: in vivo, patients; parameters: key: “NC” indicating no change; conditions: expected benefit, class symbol
Description: as §1

HDL cholesterol [3] = test: Projected benefit on HDL cholesterol level (Table 5); format: in vivo, patients; conditions: expected range of benefits, CVD-specific nutraceutical regimen
Description: as §1

HDL cholesterol [4] = conditions: low doses (500-1000 mg/day); cited from earlier work
triglycerides [5] = test: Projected benefit on triglyceride level (Table 5); format: in vivo, patients; conditions: expected range of benefits, CVD-specific nutraceutical regimen
Description: as §1

LDL cholesterol [6] = conditions: higher doses (1000-3000 mg/day); cited from earlier work

In the case of `O=C(O)c1cccnc1` [Niacin], the HOMOCYSTEINE (homocysteine) is listed as “NC”, the effect on triglycerides (triglycerides [1]) is listed as “lower triglycerides” and the LDL (LDL cholesterol [2]) is listed as “NC”. The HDL increase (HDL cholesterol [3]) was 5-10%, the “effect on HDL cholesterol” value (HDL cholesterol [4]) was “raise HDL cholesterol” and the TRIGLYCERIDES decrease (triglycerides [5]) was 0-10%. For the same compound, the “effect on LDL cholesterol” value (LDL cholesterol [6]) was “decrease LDL cholesterol modestly”.
